Reference: US20050282743A1, “Molecular interactions in cells” (Arbor Vita Corporation, priority 2001, published 2005)
Blank lines part the entries; values can stand above or below the compound they belong to. Ends that are not written are not given here. Peptide text beside a SMILES is read from it. * marks the point of attachment. Biotin = O=C1N[C@H]2[C@H](CS[C@H]2CCCCC(=O)*)N1

Columns and labels:
Experiment in all cases: G' assay (10 uM PL peptide), results of TABLE 7 and TABLE 12
Format in all cases: binding
[1] = biological target: T1, PDZ protein (GST-PDZ fusion) (Homo sapiens, UniProt Q9HD26); conditions: PDZ PIST, PDZ Domain 1
T1 construct: made in house; host or cells: E. coli (DH5alpha, BL21 or JM109)
Method in brief: (§1)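 Same steps as the G-zero format, apart from a peptide concentration of 10 uM in place of 20 uM in step 2. Amino-terminally biotinylated PL peptides bind GST-PDZ fusions, and retained peptide is quantified by 450 nm absorbance.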

[2] = biological target: T2, PDZ protein (GST-PDZ fusion) (Homo sapiens, UniProt Q9Y3R0)
T2 construct: made in house; host or cells: E. coli (DH5alpha, BL21 or JM109)
T2 sequence (Q9Y3R0 1-1128): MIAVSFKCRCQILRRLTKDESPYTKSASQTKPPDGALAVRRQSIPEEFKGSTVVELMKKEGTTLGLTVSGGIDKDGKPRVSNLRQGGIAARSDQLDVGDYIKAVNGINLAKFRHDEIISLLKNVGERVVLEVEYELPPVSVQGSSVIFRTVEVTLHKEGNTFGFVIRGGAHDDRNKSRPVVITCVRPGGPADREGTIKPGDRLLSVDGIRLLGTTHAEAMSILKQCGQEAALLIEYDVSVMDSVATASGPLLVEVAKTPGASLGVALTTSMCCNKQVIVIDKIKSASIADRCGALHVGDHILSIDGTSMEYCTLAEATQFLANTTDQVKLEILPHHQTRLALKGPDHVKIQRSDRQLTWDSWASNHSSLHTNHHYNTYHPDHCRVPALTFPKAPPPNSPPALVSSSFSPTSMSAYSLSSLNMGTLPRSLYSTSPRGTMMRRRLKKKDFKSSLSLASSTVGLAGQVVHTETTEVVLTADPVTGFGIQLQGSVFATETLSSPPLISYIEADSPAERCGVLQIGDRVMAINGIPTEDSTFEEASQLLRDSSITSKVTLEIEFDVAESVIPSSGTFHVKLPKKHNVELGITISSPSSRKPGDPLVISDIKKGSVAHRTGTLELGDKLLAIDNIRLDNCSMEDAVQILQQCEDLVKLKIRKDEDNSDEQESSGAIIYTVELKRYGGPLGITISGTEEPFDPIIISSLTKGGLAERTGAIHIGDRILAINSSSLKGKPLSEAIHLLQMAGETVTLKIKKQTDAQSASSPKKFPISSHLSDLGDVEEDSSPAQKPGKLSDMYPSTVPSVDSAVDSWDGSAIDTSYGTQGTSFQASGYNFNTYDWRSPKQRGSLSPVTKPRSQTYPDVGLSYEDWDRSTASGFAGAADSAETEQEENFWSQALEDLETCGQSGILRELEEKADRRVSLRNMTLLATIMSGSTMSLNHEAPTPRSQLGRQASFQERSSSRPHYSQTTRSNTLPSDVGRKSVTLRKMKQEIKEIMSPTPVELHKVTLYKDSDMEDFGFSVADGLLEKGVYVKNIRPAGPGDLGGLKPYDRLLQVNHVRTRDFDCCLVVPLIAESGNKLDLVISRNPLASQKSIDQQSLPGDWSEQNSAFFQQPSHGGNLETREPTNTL
Method in brief: as §1

[3] = biological target: T3, PDZ protein (GST-PDZ fusion) (Homo sapiens, UniProt O14908); conditions: PDZ TAX IP2, PDZ Domain 1
T3 construct: made in house; host or cells: E. coli (DH5alpha, BL21 or JM109)
T3 sequence (O14908 1-333): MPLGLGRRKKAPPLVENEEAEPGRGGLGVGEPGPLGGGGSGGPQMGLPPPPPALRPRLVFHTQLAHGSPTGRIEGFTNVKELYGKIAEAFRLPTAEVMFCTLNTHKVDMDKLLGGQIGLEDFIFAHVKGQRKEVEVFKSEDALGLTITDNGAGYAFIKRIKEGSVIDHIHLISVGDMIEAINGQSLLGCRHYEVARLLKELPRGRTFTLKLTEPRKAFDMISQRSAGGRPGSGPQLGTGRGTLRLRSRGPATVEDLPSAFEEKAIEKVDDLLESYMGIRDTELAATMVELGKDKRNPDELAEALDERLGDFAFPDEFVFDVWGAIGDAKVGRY
Method in brief: as §1

Compound: A2AC_HUMAN (Modified) (Biotin-DFRPSFKHILFRRARRGFRQ; not fully specified)
Classification ([2]; PDZ GRIP1, PDZ Domain 5): 1 (A450 nm 0-1)

Compound: CC[C@H](C)[C@H](NC(=O)[C@H](CC(=O)O)NC(=O)[C@H](CCC(=O)O)NC(=O)[C@H](CCCNC(=N)N)NC(=O)[C@@H](NC(=O)CCCC[C@@H]1SC[C@@H]2NC(=O)N[C@@H]21)[C@@H](C)O)C(=O)N[C@@H](Cc1ccc(O)cc1)C(=O)N[C@H](C(=O)N[C@@H](CC(N)=O)C(=O)N[C@@H](Cc1ccc(O)cc1)C(=O)N1CCC[C@H]1C(=O)N[C@H](C(=O)N[C@@H](Cc1ccccc1)C(=O)N[C@@H](CO)C(=O)N[C@@H](CCCNC(=N)N)C(=O)N[C@@H](CCCNC(=N)N)C(=O)N1CCC[C@H]1C(=O)N[C@@H](CCCCN)C(=O)N[C@H](C(=O)N[C@@H](CCCNC(=N)N)C(=O)N[C@H](C(=O)O)C(C)C)[C@@H](C)O)[C@@H](C)O)C(C)C [DNAM-1] (Biotin-TREDIYVNYPTFSRRPKTRV-OH; C-terminus assumed)
Classification [1]: 4 (A450 nm 3-4)

Compound: CC(C)C[C@H](NC(=O)[C@H](C)NC(=O)[C@H](CO)NC(=O)CNC(=O)[C@@H](NC(=O)CCCC[C@@H]1SC[C@@H]2NC(=O)N[C@@H]21)[C@@H](C)O)C(=O)N[C@@H](CCC(N)=O)C(=O)N[C@@H](C)C(=O)N[C@@H](Cc1c[nH]c2ccccc12)C(=O)N[C@@H](CCCNC(=N)N)C(=O)N[C@@H](Cc1c[nH]cn1)C(=O)N[C@H](C(=O)N[C@@H](CO)C(=O)N[C@@H](CCCNC(=N)N)C(=O)N[C@@H](CCC(N)=O)C(=O)N[C@@H](C)C(=O)N[C@H](C(=O)N[C@@H](CCC(=O)O)C(=O)N[C@@H](CO)C(=O)N[C@H](C(=O)N[C@H](C(=O)O)C(C)C)[C@@H](C)O)[C@@H](C)O)[C@@H](C)O [HPV E6 #66 (modified)] (Biotin-TGSALQAWRHTSRQATESTV-OH; C-terminus assumed)
Classification [3]: 2 (A450 nm 1-2)

Compound: LNETTETQRTLLNGDLQTSI (Biotin-LNETTETQRTLLNGDLQTSI) [SSTR2 (somatostatin recepor 2)]
Classification ([2]; PDZ GRIP1, PDZ Domain 7): 1 (A450 nm 0-1)

Compound: CC[C@H](C)[C@H](NC(=O)[C@H](CCC(N)=O)NC(=O)[C@@H](NC(=O)[C@H](Cc1c[nH]cn1)NC(=O)[C@H](CCC(N)=O)NC(=O)[C@H](CC(=O)O)NC(=O)[C@H](CCC(=O)O)NC(=O)[C@H](CC(=O)O)NC(=O)[C@H](Cc1ccccc1)NC(=O)[C@@H]1CCCN1C(=O)[C@H](CCC(=O)O)NC(=O)[C@H](CC(N)=O)NC(=O)[C@H](CCC(=O)O)NC(=O)[C@@H]1CCCN1C(=O)[C@H](CC(=O)O)NC(=O)[C@H](CO)NC(=O)[C@H](CC(=O)O)NC(=O)CCCC[C@@H]1SC[C@@H]2NC(=O)N[C@@H]21)[C@@H](C)O)C(=O)N[C@H](C(=O)N[C@@H](CCCCN)C(=O)N[C@H](C(=O)O)C(C)C)[C@@H](C)O [PTEN]
Classification ([2]; PDZ GRIP1, PDZ Domain 3): 1 (A450 nm 0-1) | Classification [1]: 1 (A450 nm 0-1)

Compound: CC(C)C[C@H](NC(=O)[C@H](C)NC(=O)[C@@H](NC(=O)[C@@H](NC(=O)[C@H](Cc1c[nH]cn1)NC(=O)[C@H](CC(C)C)NC(=O)CNC(=O)[C@H](CCC(N)=O)NC(=O)CNC(=O)CNC(=O)[C@H](C)NC(=O)[C@H](C)NC(=O)[C@H](CCCNC(=N)N)NC(=O)[C@H](C)NC(=O)[C@H](CO)NC(=O)[C@H](CC(=O)O)NC(=O)[C@H](CC(=O)O)NC(=O)[C@H](Cc1c[nH]c2ccccc12)NC(=O)[C@H](C)NC(=O)CCCC[C@@H]1SC[C@@H]2NC(=O)N[C@@H]21)C(C)C)[C@@H](C)O)C(=O)O [LPAP] (Biotin-AWDDSARAAGGQGLHVTAL-OH; C-terminus assumed)
Classification ([2]; PDZ GRIP1, PDZ Domain 3): 1 (A450 nm 0-1) | Classification [1]: 1 (A450 nm 0-1)

Compound: ALVLIAFCIIRRRPSAYQAL (Biotin-ALVLIAFCIIRRRPSAYQAL) [CD68]
Classification ([2]; PDZ GRIP1, PDZ Domain 6): 1 (A450 nm 0-1)

Compound: CC[C@H](C)[C@H](NC(=O)[C@H](C)NC(=O)[C@H](CC(C)C)NC(=O)[C@H](Cc1c[nH]c2ccccc12)NC(=O)[C@H](Cc1c[nH]cn1)NC(=O)[C@H](CCC(N)=O)NC(=O)[C@H](CC(C)C)NC(=O)[C@H](CCC(N)=O)NC(=O)[C@H](Cc1ccccc1)NC(=O)[C@H](CCC(N)=O)NC(=O)[C@H](CCCNC(=N)N)NC(=O)[C@@H](NC(=O)[C@H](CC(=O)O)NC(=O)[C@H](CCCNC(=N)N)NC(=O)[C@H](CCC(N)=O)NC(=O)[C@H](C)NC(=O)[C@@H](NC(=O)[C@H](CC(C)C)NC(=O)[C@H](Cc1c[nH]cn1)NC(=O)[C@H](Cc1c[nH]cn1)NC(=O)CCCC[C@@H]1SC[C@@H]2NC(=O)N[C@@H]21)C(C)C)[C@@H](C)CC)C(=O)O [noradrenaline transporter] (Biotin-HHLVAQRDIRQFQLQHWLAI-OH; C-terminus assumed)
Classification ([2]; PDZ GRIP1, PDZ Domain 6): 2 (A450 nm 1-2)

Compound: CC(C)C[C@H](NC(=O)[C@H](CC(C)C)NC(=O)[C@@H](NC(=O)[C@H](CC(=O)O)NC(=O)CCCC[C@@H]1SC[C@@H]2NC(=O)N[C@@H]21)[C@@H](C)O)C(=O)N[C@@H](CC(C)C)C(=O)N[C@H](C(=O)N[C@@H](CCC(=O)O)C(=O)N[C@@H](CC(N)=O)C(=O)N[C@@H](CCC(=O)O)C(=O)NCC(=O)N[C@@H](CC(=O)O)C(=O)N[C@@H](CCCCN)C(=O)N[C@H](C(=O)N[C@@H](CCC(=O)O)C(=O)N[C@@H](CCC(=O)O)C(=O)N[C@@H](CCC(N)=O)C(=O)N[C@H](C(=O)N[C@@H](CO)C(=O)N[C@@H](Cc1ccc(O)cc1)C(=O)N[C@H](C(=O)O)C(C)C)C(C)C)[C@@H](C)O)[C@@H](C)O [5H2B_HUMAN] (Biotin-DTLLLTENEGDKTEEQVSYV-OH; C-terminus assumed)
Classification [1]: 1 (A450 nm 0-1)

Compound: CC[C@H](C)[C@H](NC(=O)[C@H](CCCCN)NC(=O)[C@@H](NC(=O)[C@H](CO)NC(=O)[C@@H]1CCCN1C(=O)[C@H](Cc1ccccc1)NC(=O)[C@@H](NC(=O)[C@@H](NC(=O)[C@H](CCCNC(=N)N)NC(=O)[C@H](CCC(=O)O)NC(=O)[C@H](CC(C)C)NC(=O)[C@H](CC(C)C)NC(=O)[C@H](CC(C)C)NC(=O)[C@@H](NC(=O)CNC(=O)[C@@H](NC(=O)CCCC[C@@H]1SC[C@@H]2NC(=O)N[C@@H]21)C(C)C)[C@@H](C)O)C(C)C)[C@@H](C)CC)C(C)C)C(=O)N[C@@H](C)C(=O)N[C@H](C(=O)N[C@@H](CC(C)C)C(=O)N[C@H](C(=O)O)C(C)C)[C@@H](C)O [Adenovirus E4 Type9]
Classification ([1]; PL peptide 10 uM): 1 (A450 nm 0-1)

Next, values leading:

Classification [1]: 1 (A450 nm 0-1)
Compound: GPVPGEPAKPKTSAHHATFV (Biotin-GPVPGEPAKPKTSAHHATFV)

Classification [3]: 4 (A450 nm 3-4)
Compound: TQGFPGPATWRRISSLESEV

Classification [3]: 1 (A450 nm 0-1)
Compound: CKR5_HUMAN (ERASSVYTRSTGEQEISVGL)

Classification ([2]; PDZ GRIP1, PDZ Domain 5): 1 (A450 nm 0-1) | Classification ([2]; PDZ GRIP1, PDZ Domain 7): 5 (A450 nm of 4 more than 2× repeated)
Compound: ELLQFCRTPNPALKNGQYWV (Biotin-ELLQFCRTPNPALKNGQYWV)

Classification [1]: 1 (A450 nm 0-1)
Compound: PPATPSPRLALPAHHNATRL (Biotin-PPATPSPRLALPAHHNATRL) [Na+/Pi cotransporter 2]

Classification [1]: 1 (A450 nm 0-1)
Compound: CC[C@H](C)[C@H](NC(=O)[C@H](CO)NC(=O)[C@H](CCC(=O)O)NC(=O)[C@H](Cc1ccc(O)cc1)NC(=O)[C@H](CC(=O)O)NC(=O)[C@H](CC(N)=O)NC(=O)[C@H](CCC(=O)O)NC(=O)[C@H](CCCCN)NC(=O)CCCC[C@@H]1SC[C@@H]2NC(=O)N[C@@H]21)C(=O)N[C@@H](CO)C(=O)N[C@@H](CC(=O)O)C(=O)N[C@@H](CC(C)C)C(=O)N[C@@H](CCC(N)=O)C(=O)N[C@@H](CCC(N)=O)C(=O)NCC(=O)N[C@@H](CCCNC(=N)N)C(=O)N[C@@H](CC(=O)O)C(=O)N[C@H](C(=O)N[C@H](C(=O)N[C@@H](CCCNC(=N)N)C(=O)N[C@@H](CC(C)C)C(=O)O)[C@@H](C)O)[C@@H](C)CC [PAG] (Biotin-KENDYESISDLQQGRDITRL-OH; C-terminus assumed)
